Reference: patent publication US20260216163A1, “CANCER COMBINATION THERAPY INCLUDING A FLT3-INHIBITOR” (RYVU THERAPEUTICS S.A., priority 2022, published 2026)
Read-outs that look alike come from different tables or passages of the source.

Columns and labels:
MV4-11 cells (FLT3 ITD) = experiment: in vitro standard cytotoxicity (MTS, 72 h), MEN and Gilt single agent or combination, Combination Index; assay type: cell-based, human; details: for IC50: Homo sapiens, read-out: IC50 dose level (single agent cytotoxicity)
Description: (§1) In an in vitro standard cytotoxicity experiment, two AML cell lines (MV4-11 [FLT3 ITD] and MOLM-13 [FLT3 ITD]) were treated for 72 hours with MEN and Gilt (a Type I inhibitor) either as a single agent or in combination.
(§2) Human acute myeloid leukemia cell lines MV4-11 and MOLM-13 were obtained from DSMZ, Braunschweig, Germany (ACC102 and ACC554). […] All cells were incubated at 37° C., 5% CO2, 80% relative humidity.

MOLM-13 cells (FLT3 ITD) = experiment: as above; assay type: cell-based, human; details: MTS (Table 2); for IC50: Homo sapiens, read-out: IC50 dose level (single agent cytotoxicity)
Description: as §1, §2

[1] = system: MV4-11 (FLT3 ITD) cell line xenograft; experiment: in vivo AML xenograft study, tumor volume inhibition; details: MV4-11 xenograft, per os from day 19, MEN 25 mg/kg Q1 × 14 d, Gilteritinib 3 mg/kg Q1 × 22 d, combination each as above
Description: For the AML xenograft model, 10×10^6 MV4-11 cells were re-suspended in 0.2 ml of BME type III (Trevigen) at 5.6 mg/ml+DPBS (1:1) and then injected subcutaneously into the right flank of 6-8 weeks old female SCID mice (Charles River, Calco, Italy).
After injection, mice were maintained in micro isolator cages under continuously monitored environmental conditions. Drinking water and specific sterilized diet (VRF1, Charles River) were supplied ad libitum. […] Twice a week, tumor growth and body weight were evaluated and recorded.
(§3) The outcome evaluation was carried out as follows: tumor volumes were measured by caliper, and tumor masses were calculated using the following formula: [length (mm)×width^2 (mm)×d]/2, assuming density, d=1 mg/mm^3 for tumor tissue (Teicher B. Totowa, 1997).
The treatment efficacy was assessed as TVI % in treated versus control mice, using the following formula: TVI %=(1−Volume Average of treated tumor mass/Volume Average of control tumor)*100.
Mice were sacrificed when tumors reached a volume of around 10% of total body weight or when mice's body weight decreased by more than 20% compared to control animals for 7 days or more. Animals were euthanized with carbon dioxide exposure according to the standard procedures (Annex IV of Directive 2010/63/EU; 2010).
GraphPad Prism software (GraphPAD Software Inc., California) was used for statistical analysis. Statistical differences were considered to be significant at p-value<0.05 using the two-tailed Mann-Whitney rank test.

[2] = system: KG-1 cells (FLT wildtype); experiment: in vitro standard cytotoxicity (MTS, 72 h), MEN and Gilt single agent or combination, Combination Index; assay type: cell-based, human; details: for IC50: Homo sapiens
Excerpt: Human acute myeloid leukemia cell line KG-1 was obtained from DSMZ, Braunschweig, Germany (ACC14).

[3] = system: MOLM-13 (FLT3 ITD) cell line xenograft; experiment: in vivo AML xenograft study, tumor volume inhibition; details: MOLM-13 xenograft, per os from day 15, MEN 25 mg/kg Q1 × 14 d, Gilteritinib 3 mg/kg Q1 × 14 d, combination each as above
Description: For the AML xenograft model, 10×10^6 MOLM-13 cells were re-suspended in 0.2 ml of BME type III (Trevigen) at 5.6 mg/ml+DPBS (1:1) and then injected subcutaneously into the right flank of 6-8 weeks old female CD-1 mice (Charles River, Calco, Italy).
After injection, mice were maintained in micro isolator cages under continuously monitored environmental conditions. Drinking water and specific sterilized diet (VRF1, Charles River) were supplied ad libitum. Environmental conditions, as well as the procedures for housing and handling the animals, complied with the UKCCCR guideline (Workman P et al., 2010) and the European Convention for the protection of vertebrate animals used for experimental and other scientific purposes (Directive 2010/63/EU; 2010). Twice a week, tumor growth and body weight were evaluated and recorded.
as §3
The treatment efficacy was assessed as TVI % in treated versus control mice, using the following formula: TVI %=(1−Volume Average of treated tumor mass/Volume Average of control tumor)*100. […]

MOLM-13 cells [4] = experiment: in vitro standard cytotoxicity (MTS, 72 h), MEN and Quizartinib single agent or combination, Combination Index; details: for IC50: Homo sapiens, MOLM-13, 72 h, read-out: IC50 (single agent cytotoxicity)
Description: (§4) The synergistic effect of the combination was measured according to the Combination Index calculation (Chou T C, 2006).
(§5) MOLM-13 cells were grown in RPMI with 20% FBS and incubated at 37° C., 5% CO2, 80% relative humidity.
(§6) 20907) were dissolved in DMSO, divided into aliquots and stored at −80° C. until use. Stock solutions were added at appropriate concentration in culture medium before the addition to cells.
(§7) For cytotoxicity studies cells were seeded at appropriate density (50.000 cells/well) prior to addition of MEN and Quiz at day 0. […] After 72 hours, CellTiter 96 Aqueous One Solution Reagent (MTS) (Promega, Madison. WI, USA) was added to assess the cell viability. Fluorescence was measured 4 h later using Tecan Infinite M200 (Tecan Trading AG, Switzerland), recording absorbance at 490 nm. Quantitative measurement of synergism/antagonism was evaluated with Combination Index (CI) on the Fraction affected (Fa) using CompuSyn (ComboSyn, Inc. Paramus, NJ, USA) (Chou T C, 2006).

MOLM-13 cells [5] = system: MOLM-13 cells
Description: as §4, §5, §6, §7

[6] = MOLM-13 cells, 72 h, MTS (Table 5)

Structure (SMILES)	IC10 dose level (single agent cytotoxicity) (MV4-11 cells (FLT3 ITD)) [nM]	IC25 dose level (single agent cytotoxicity) (MV4-11 cells (FLT3 ITD)) [nM]	IC75 dose level (single agent cytotoxicity) (MV4-11 cells (FLT3 ITD)) [nM]	IC50 (MV4-11 cells (FLT3 ITD)) [nM]	IC50 (MOLM-13 cells (FLT3 ITD)) [nM]	IC10 dose level (single agent cytotoxicity) (MOLM-13 cells (FLT3 ITD)) [nM]	IC25 dose level (single agent cytotoxicity) (MOLM-13 cells (FLT3 ITD)) [nM]	IC75 dose level (single agent cytotoxicity) (MOLM-13 cells (FLT3 ITD)) [nM]	TVI % Day 33 [1] [%]	TVI % Day 40 [1] [%]	IC10 (single agent cytotoxicity) [2] [nM]	IC25 (single agent cytotoxicity) [2] [nM]	IC75 (single agent cytotoxicity) [2] [nM]	IC50 [2] [nM]	TVI % Day 29 [3] [%]	IC50 (MOLM-13 cells [4]) [nM]	other results
CCc1nc(C(N)=O)c(Nc2ccc(N3CCC(N4CCN(C)CC4)CC3)c(OC)c2)nc1NC1CCOCC1 [Gilteritinib]	2.2	4.2	14	7.9	11	1.4	4	32	84.1	87.6	35.34	150.2	2712	638	60.1	–	–
CC(C)(C)c1cc(NC(=O)Nc2ccc(-c3cn4c(n3)sc3cc(OCCN5CCOCC5)ccc34)cc2)no1 [QUIZ, Quizartinib]	–	–	–	–	–	–	–	–	–	–	–	–	–	–	–	0.946	IC10 (single agent cytotoxicity) (MOLM-13 cells [5]): 0.374 nM; IC25 (single agent cytotoxicity) (MOLM-13 cells [5]): 0.595 nM; IC75 (single agent cytotoxicity) (MOLM-13 cells [5]): 1.504 nM
CC(C)n1c(C2CCNCC2)nc2c([N+](=O)[O-])c(Br)c(Br)cc21 [MEN, 5,6-dibromo-4-nitro-2-(piperidin-4-yl)-1-(propan-2-yl)-1H-1,3-benzodiazole]	151	293	1103	569	510	87	210	1230	57.2	53.1	57.48	203	2530	717	38.8	510	IC10 (single agent cytotoxicity) (MOLM-13 cells [4]; [6]): 87.29 nM; IC25 (single agent cytotoxicity) (MOLM-13 cells [4]; [6]): 322.2 nM; IC75 (single agent cytotoxicity) (MOLM-13 cells [4]; [6]): 1234 nM
